From patent US20110250629A1, “ALCOHOL PRODUCTION PROCESS” (Lanza Tech New Zealand Limited, priority 2009, published 2011)

Key:
[1] = system: Clostridium autoethanogenum DSM23693; conditions: 37° C., PETC medium
Protocol: The ethanol tolerance of Clostridium autoethanogenum DSM23693 was tested in serum bottles (FIG. 5). Ethanol was added in various concentrations to an active growing culture at 37° C. in PETC medium (Tab. 1) with 30 psi steel mill gas as substrate (approx 48% CO, 32% N2, 2% H2, and 18% CO2). Ethanol concentrations were confirmed by HPLC analysis using an Agilent 1100 Series HPLC system equipped with a RID operated at 35° C. (Refractive Index Detector) and an Alltech IOA-2000 Organic acid column (150×6.5 mm, particle size 5 μm) kept at 60° C. Slightly acidified water was used (0.005 M H2SO4) as mobile phase with a flow rate of 0.7 ml/min. To remove proteins and other cell residues, 400 μl samples were mixed with 100 μl of a 2% (w/v) 5-Sulfosalicylic acid and centrifuged at 14,000×g for 3 min to separate precipitated residues. 10 μl of the supernatant were then injected into the HPLC for analyses.

[2] = system: Clostridium autoethanogenum; conditions: fermentation broth
Clostridium thermocellum = conditions: cited from earlier work

CCO [ethanol, Ethanol]
microbial biomass reached over a 24 hour period ([1]; 20 g/L ethanol added, 30 psi steel mill gas, start approx 0.2 g/L biomass, no-added-ethanol culture reached approx 0.85 g/L): 0.45 g/L
ethanol concentration at which growth was found to be inhibited ([1]; serum bottles): 10-20 g/l
concentration over which growth rate is partially inhibited and productivity decreases [2]: 20 to 40 g/L
concentration over which metabolism and growth rate are substantially slowed [2]: 40 to 50 g/L
ethanol concentration in which the micro-organism can still thrive (Clostridium thermocellum; after strain selection): up to 8%
ethanol concentration inhibitory to growth (Clostridium thermocellum; unselected strain): above 1%
